Experimental data taken from ChEMBL document CHEMBL5537208 (J Med Chem, 2024).
≈ marks a conversion by molar mass, not a printed value.

Assays:
[1] = Apparent permeability across apical to basal side in MDCKI-MDR1 cells; format: ADME, cell-based, Canis lupus familiaris; details: dog, MDCK-MDR1
[2] = Apparent permeability across basal to apical side in MDCKI-MDR1 cells; format: ADME, cell-based, Canis lupus familiaris; details: dog, MDCK-MDR1
[3] = Unbound drug concentration in Wistar rat plasma at 1 mg/kg, po measured after 1 hr by LC-tandem MS analysis; format: ADME, organism-based; details: in vivo
[4] = Unbound drug concentration in Wistar rat brain at 1 mg/kg, po measured after 1 hr by LC-tandem MS analysis; format: ADME, organism-based; details: in vivo
[5] = Drug concentration in cerebrospinal fluid of Wistar rat at 1 mg/kg, po measured after 1 hr by LC-tandem MS analysis; format: ADME, organism-based; details: read-out: Ct
[6] = Ratio of unbound drug concentration in Wistar rat brain to plasma at 1 mg/kg, po measured after 1 hr by LC-tandem MS analysis; format: ADME, organism-based; details: read-out: K(p,uu,brain)
[7] = Solubility of compound in FeSSIF; format: ADME
[8] = Drug concentration in Wistar rat Cerebrospinal fluid at 30 mg/kg, po measured after 1 hr by LC-tandem MS analysis; format: ADME, organism-based; details: read-out: Ct
[9] = Unbound drug concentration in Wistar rat brain at 30 mg/kg, po measured after 1 hr by LC-tandem MS analysis; format: ADME, organism-based; details: in vivo
[10] = In vivo receptor occupancy at OX2R in Wistar rat brain at 30 mg/kg, po measured after 1 hr relative to control; format: functional
[11] = Drug concentration in Wistar rat Cerebrospinal fluid at 100 mg/kg, po measured after 1 hr by LC-tandem MS analysis; format: ADME, organism-based; details: read-out: Ct
[12] = Unbound drug concentration in Wistar rat brain at 100 mg/kg, po measured after 1 hr by LC-tandem MS analysis; format: ADME, organism-based; details: in vivo
[13] = In vivo receptor occupancy at OX2R in Wistar rat brain at 100 mg/kg, po measured after 1 hr relative to control; format: functional
[14] = Drug absorption in rat; format: ADME; details: in vivo
[15] = Drug absorption in dog; format: ADME, Canis lupus familiaris; details: in vivo
[16] = Thermodynamic solubility in FaSSIF at pH 6.5; format: ADME; details: read-out: Therm_solubility
[17] = Thermodynamic solubility in FeSSIF at pH 5.0; format: ADME; details: read-out: Therm_solubility
[18] = Apparent permeability in wild-type MDCK-II cells; format: ADME, cell-based, Canis lupus familiaris; details: dog
[19] = Clearance in rat; format: ADME; details: in vivo
[20] = Clearance in dog; format: ADME, Canis lupus familiaris; details: in vivo
[21] = target: T1, Orexin/Hypocretin receptor type 1 (Homo sapiens, UniProt O43613)
T1 sequence (O43613 whole entry): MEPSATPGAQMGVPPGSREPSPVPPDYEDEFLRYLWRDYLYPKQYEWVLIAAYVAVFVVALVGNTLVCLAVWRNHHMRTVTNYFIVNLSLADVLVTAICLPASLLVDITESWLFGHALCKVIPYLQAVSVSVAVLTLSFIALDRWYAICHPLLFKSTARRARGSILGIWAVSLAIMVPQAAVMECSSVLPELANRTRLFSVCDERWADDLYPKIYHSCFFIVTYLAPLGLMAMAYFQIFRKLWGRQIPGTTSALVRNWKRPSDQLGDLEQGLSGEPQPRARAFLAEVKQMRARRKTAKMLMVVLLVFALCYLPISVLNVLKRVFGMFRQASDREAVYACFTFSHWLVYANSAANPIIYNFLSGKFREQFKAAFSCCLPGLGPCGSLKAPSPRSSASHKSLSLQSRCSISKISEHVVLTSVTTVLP
Description: Antagonist activity at human OX1R expressed in CHO cells preincubated for 120 mins followed by orexin-A addition by FLIPR assay

Orexin receptor type 2 = target: T2, Orexin receptor type 2 (Homo sapiens, UniProt O43614)
T2 sequence (O43614 whole entry): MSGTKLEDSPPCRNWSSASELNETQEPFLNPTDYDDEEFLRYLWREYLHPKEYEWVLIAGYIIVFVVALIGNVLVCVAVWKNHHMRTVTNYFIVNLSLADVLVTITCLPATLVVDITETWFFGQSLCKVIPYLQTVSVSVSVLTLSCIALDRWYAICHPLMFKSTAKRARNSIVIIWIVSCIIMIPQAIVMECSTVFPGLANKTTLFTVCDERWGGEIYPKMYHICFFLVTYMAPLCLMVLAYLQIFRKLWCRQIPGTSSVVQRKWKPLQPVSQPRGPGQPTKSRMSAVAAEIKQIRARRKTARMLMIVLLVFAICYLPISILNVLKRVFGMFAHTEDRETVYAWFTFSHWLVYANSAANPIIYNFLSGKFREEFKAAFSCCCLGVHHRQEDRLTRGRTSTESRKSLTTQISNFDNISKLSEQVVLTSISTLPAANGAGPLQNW
Description: Antagonist activity at human OX2R expressed in CHO cells preincubated for 120 mins followed by orexin-A addition by FLIPR assay

in vitro [22] = details: human, liver microsomes
in vitro [23] = details: rat, liver microsomes
in vitro [24] = details: dog, MDCK-MDR1
Description: Efflux ratio in MDCKI-MDR1 cells

Q: For `Cc1ccc(C(=O)N2CCOC[C@H]2Cc2cccc(-n3nccn3)c2)c(-n2nccn2)c1` [NIVASOREXANT], which Papp A→B [1] is on record?
A: Its Papp A→B is 20.4 ×10⁻⁶ cm/s.

Q: What about the Papp B→A [2] of the same molecule?
A: The Papp B→A was 70.5 ×10⁻⁶ cm/s.

Q: What about the “Cp(f)” value [3] of the same molecule?
A: Its value is 227 nM.

Q: And the “Drug uptake(free)” value [4]?
A: The value was 413 nM.

Q: What about the concentration at 1 h [5] of the same molecule?
A: The concentration at 1 h was 718 nM.

Q: And the Kp uu at 1 h [6]?
A: The Kp uu at 1 h was 1.82.

Q: And the solubility [7]?
A: Its solubility is 270 µg/mL (≈ 629 µM).

Q: And the concentration at 1 h [8]?
A: Its concentration at 1 h is 240 nM.

Q: What about the “Drug uptake(free)” value [9] of the same molecule?
A: Its value is 92 nM.

Q: What about the Occ [10] of the same molecule?
A: Its Occ is 71%.

Q: What about the concentration at 1 h [11] of the same molecule?
A: Its concentration at 1 h is 718 nM.

Q: What about the “Drug uptake(free)” value [12] of the same molecule?
A: Its value is 413 nM.

Q: What about the Occ [13] of the same molecule?
A: The Occ was 92%.

Q: And the Drug absorption [14]?
A: The Drug absorption was “Active”.

Q: And the Drug absorption [15]?
A: The Drug absorption was “Active”.

Q: And the solubility thermodynamic [16]?
A: The solubility thermodynamic was 72 µg/mL (≈ 168 µM).

Q: And the solubility thermodynamic [17]?
A: Its solubility thermodynamic is 150 µg/mL (≈ 349 µM).

Q: And the Papp [18]?
A: Its Papp is 43.9 ×10⁻⁶ cm/s.

Q: What about the clearance [19] of the same molecule?
A: Its clearance is 31 mL/min/kg.

Q: And the clearance [20]?
A: The clearance was 7.7 mL/min/kg.

Q: What about the IC50 [21] of the same molecule?
A: The IC50 was 1.7 nM.

Q: And the IC50 (Orexin receptor type 2)?
A: The IC50 was 227 nM.

Q: What about the microsomal CLint at 1 µM (in vitro [22]) of the same molecule?
A: Its microsomal CLint at 1 µM is 156 µL/min/mg.

Q: What about the microsomal CLint at 1 µM (in vitro [23]) of the same molecule?
A: The microsomal CLint at 1 µM was over 1250 µL/min/mg.

Q: And the efflux ratio (in vitro [24])?
A: Its efflux ratio is 3.5.
